These results are taken from patent publication US20100234467A1, “METHODS FOR IMPROVING BIOAVAILABILITY OF A RENIN INHIBITOR” (priority 2006, published 2010).

Where only a bound is given, the exact number is not on record here.

The data set deals with Caco-2 cell monolayers. The class given is in vitro ADME. An excerpt:
Alternatively, the in vitro transporter affinity of a drug substance can be determined and approximated by a Caco-2 cell assay as described, e.g., in […] et al., Pharm. Act. Helv. 71, 309-327 (1996), or as illustrated herein in the Examples. The identification of the transporter protein and the efficacy of a compound to inhibit the efflux system involved may as well be determined in the Caco-2 cell assay. […] Caco-2 cell monolayers grown on PET filters for 21-25 days are used for the transport experiments. The flux of compounds across Caco-2 cell monolayers grown on PET filters as well as across PET filters alone without Caco-2 cells is determined as follows: […] To start the experiment, the medium in the donor compartment (0.35 mL for apical and 1.15 mL for basolateral sides) is replaced with donor solution (compound in HBSS, when relevant containing inhibitor of interest) pre-incubated at 37° C. Aliquots of 150 μL are removed from the donor and the acceptor side after about 1 and 120 min. Transport experiments in both apical-to-basolateral and basolateral-to-apical directions are performed in triplicate at 37° C. in an incubator without shaking. […] Radioactive samples are analyzed by liquid scintillation counting. All other non-radiolabeled samples are kept frozen at -20° C. until analysis by liquid chromatography/tandem mass spectrometry (LC-MS/MS). Transport values of the compounds tested are determined using the following equation (Artursson et al., Biochem. Biophys. Res. Comm. 175: 880-885, 1991): where Papp (cm/min) is the apparent permeability coefficient, ΔQ is the amount of compound found in the acceptor compartment at time t, Δt (min) is the incubation time period, C0 (μg/mL) is the initial concentration of the compound in the donor compartment and A (cm^2) is the surface area of the membrane. […] Under the conditions of this study, the LOQ of absolute radioactivity is 2 dpm for [^14C]-labeled Aliskiren corresponding to 12 nmol/L. Papp values are presented as means±standard deviations of the transport experiments performed (n=3). […]

As for `COCCCOc1cc(C[C@@H](C[C@H](N)[C@@H](O)C[C@H](C(=O)NCC(C)(C)C(N)=O)C(C)C)C(C)C)ccc1OC` [Aliskiren, (2S,4S,5S,7S)-5-amino-4-hydroxy-2-isopropyl-7-[4-methoxy-3-(3-methoxy-propoxy)-benzyl]-8-methyl-nonanoic acid (2-carbamoyl-2-methyl-propyl)-amide hemifumarate], for the setting “Caco-2”, the efflux substrate identification result is reported as “substrate for a prominent efflux system”. Under “human, Caco-2, 120 min”, this molecule showed an intrinsic permeability below 80%.
For `OC[C@@H](O)[C@@H](O)[C@H](O)[C@H](O)CO` [Mannitol], the “apical to basolateral flux of marker (Papp, below threshold)” value (human, Caco-2, 120 min) is below 0.5 ×10⁻⁶ cm/s.
